Measured values published in PubChem BioAssay AID330 (DTP/NCI, 2004).
Values joined by “and” are separate entries in the source; they are usually repeats but may differ in a detail not shown here. Equal entries are not always repeated. Toxic doses and inconclusive results are not listed.

System: P388 leukemia ip, CD2F1 mice, survival T/C
Test: NCI In Vivo Anticancer Drug Screen. Data for tumor model P388 Leukemia (intraperitoneal) in CD2F1 (CDF1) mice
Details: endpoint: median survival time, higher = longer survival
Summary of the method: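 Mice carrying the transplanted tumor received test compound or vehicle. Survival was recorded in each group, and the value is the treated-group measurement divided by that of the vehicle-treated control group.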

[1] = dose: 50.0 mg/kg/injection, schedule: Q01DX009 (ip), vehicle: other
[2] = dose: 60.0 mg/kg/injection, schedule: Q01DX005 (ip), vehicle: saline with Tween-80
[3] = dose: 120.0 mg/kg/injection, schedule: Q01DX005 (ip), vehicle: saline with Tween-80
[4] = dose: 50.0 mg/kg/injection, schedule: Q01DX005 (ip), vehicle: Klucel (hydroxypropylcellulose) (HPC)
[5] = dose: 100.0 mg/kg/injection, schedule: Q01DX005 (ip), vehicle: Klucel (hydroxypropylcellulose) (HPC)

Cn1c2ccccc2c(=O)c2c(O)cc3c(c21)C=CC(C)(C)O3
T/C (dose: 0.38 mg/kg/injection, schedule: Q01DX009 (ip), vehicle: Klucel (hydroxypropylcellulose) (HPC)): 107 % of control | T/C (dose: 0.38 mg/kg/injection, schedule: Q01DX009 (ip), vehicle: saline with Tween-80): 95 % of control | T/C (dose: 0.75 mg/kg/injection, schedule: Q01DX009 (ip), vehicle: Klucel (hydroxypropylcellulose) (HPC)): 102 % of control and 97 % of control | T/C (dose: 0.75 mg/kg/injection, schedule: Q01DX009 (ip), vehicle: saline with Tween-80): 98 % of control | T/C (dose: 1.5 mg/kg/injection, schedule: Q01DX009 (ip), vehicle: Klucel (hydroxypropylcellulose) (HPC)): 99 % of control and 103 % of control | T/C (dose: 1.5 mg/kg/injection, schedule: Q01DX009 (ip), vehicle: saline with Tween-80): 94 % of control | T/C (dose: 1.56 mg/kg/injection, schedule: Q01DX009 (ip), vehicle: Klucel (hydroxypropylcellulose) (HPC)): 124 % of control | T/C (dose: 3.0 mg/kg/injection, schedule: Q01DX009 (ip), vehicle: Klucel (hydroxypropylcellulose) (HPC)): 102 % of control and 103 % of control | T/C (dose: 3.0 mg/kg/injection, schedule: Q01DX009 (ip), vehicle: saline with Tween-80): 94 % of control | T/C (dose: 3.12 mg/kg/injection, schedule: Q01DX009 (ip), vehicle: Klucel (hydroxypropylcellulose) (HPC)): 101 % of control | T/C (dose: 6.25 mg/kg/injection, schedule: Q01DX009 (ip), vehicle: Klucel (hydroxypropylcellulose) (HPC)): 102 % of control | T/C (dose: 12.5 mg/kg/injection, schedule: Q01DX009 (ip), vehicle: Klucel (hydroxypropylcellulose) (HPC)): 100 % of control

COc1cc2c(=O)n3c4c(cccc4c2cc1OC)CC3
T/C (dose: 25.0 mg/kg/injection, schedule: Q01DX009 (ip), vehicle: other): 98 % of control | T/C [1]: 91 % of control | T/C (dose: 100.0 mg/kg/injection, schedule: Q01DX009 (ip), vehicle: other): 91 % of control | T/C (dose: 200.0 mg/kg/injection, schedule: Q01DX009 (ip), vehicle: other): 89 % of control | T/C (dose: 400.0 mg/kg/injection, schedule: Q01DX009 (ip), vehicle: other): 96 % of control

CC(=O)Nc1ccc(/C=C2/C(=O)ON=C2C)cc1
T/C [2]: 116 % of control | T/C [3]: 116 % of control

FC(F)(F)c1ssc1C(F)(F)F
T/C (dose: 100.0 mg/kg/injection, schedule: Q01DX001 (ip), vehicle: other): 99 % of control | T/C (dose: 200.0 mg/kg/injection, schedule: Q01DX001 (ip), vehicle: other): 104 % of control

COc1c(C)n(CCCCCCn2ccc(=O)c(OC)c2C)ccc1=O
T/C [4]: 92 % of control | T/C [5]: 108 % of control | T/C (dose: 200.0 mg/kg/injection, schedule: Q01DX005 (ip), vehicle: Klucel (hydroxypropylcellulose) (HPC)): 93 % of control

COC(=O)c1nc2nnc(NC(=O)Nc3ccc(Cl)cc3)n2c(-c2ccccc2)c1C
T/C [2]: 96 % of control | T/C [3]: 95 % of control

COc1cccc2c1C(=O)c1c(O)c3c(c(O)c1C2=O)C[C@@](O)(C(C)O)C[C@@H]3OC1CC(N2CCCCC2)C(O)C(C)O1 (stereo not given in full)
T/C (dose: 2.5 mg/kg/injection, schedule: Q04DX003 (ip), vehicle: water): 120 % of control | T/C (dose: 5.0 mg/kg/injection, schedule: Q04DX003 (ip), vehicle: water): 162 % of control | T/C (dose: 10.0 mg/kg/injection, schedule: Q04DX003 (ip), vehicle: water): 118 % of control | T/C (dose: 20.0 mg/kg/injection, schedule: Q04DX003 (ip), vehicle: water): 110 % of control | T/C (dose: 40.0 mg/kg/injection, schedule: Q04DX003 (ip), vehicle: water): 96 % of control

[N-]=[N+]=CC(=O)CCC(N)C(=O)O (stereo not given)
T/C (dose: 0.04 mg/kg/injection, schedule: Q01DX009 (ip), vehicle: saline): 121 % of control | T/C (dose: 0.05 mg/kg/injection, schedule: Q01DX009 (ip), vehicle: saline): 158 % of control | T/C (dose: 0.08 mg/kg/injection, schedule: Q01DX005 (ip), vehicle: saline): 118 % of control | T/C (dose: 0.08 mg/kg/injection, schedule: Q01DX005 (iv), vehicle: saline): 109 % of control | T/C (dose: 0.08 mg/kg/injection, schedule: Q01DX009 (ip), vehicle: saline): 155 % of control | T/C (dose: 0.1 mg/kg/injection, schedule: Q01DX009 (ip), vehicle: saline): 178 % of control | T/C (dose: 0.15 mg/kg/injection, schedule: Q01DX005 (ip), vehicle: saline): 121 % of control | T/C (dose: 0.15 mg/kg/injection, schedule: Q01DX005 (iv), vehicle: saline): 110 % of control | T/C (dose: 0.15 mg/kg/injection, schedule: Q01DX009 (ip), vehicle: saline): 161 % of control and 171 % of control | T/C (dose: 0.2 mg/kg/injection, schedule: Q01DX009 (ip), vehicle: saline): 206 % of control | T/C (dose: 0.3 mg/kg/injection, schedule: Q01DX005 (iv), vehicle: saline): 112 % of control | T/C (dose: 0.3 mg/kg/injection, schedule: Q01DX009 (ip), vehicle: saline): 103 % of control and 105 % of control | T/C (dose: 0.4 mg/kg/injection, schedule: Q01DX009 (ip), vehicle: saline): 235 % of control | T/C (dose: 0.6 mg/kg/injection, schedule: Q01DX005 (ip), vehicle: saline): 153 % of control | T/C (dose: 0.6 mg/kg/injection, schedule: Q01DX009 (ip), vehicle: saline): 87 % of control | T/C (dose: 0.8 mg/kg/injection, schedule: Q01DX009 (ip), vehicle: saline): 94 % of control | T/C (dose: 1.0 mg/kg/injection, schedule: Q04DX003 (ip), vehicle: saline): 160 % of control | T/C (dose: 2.0 mg/kg/injection, schedule: Q04DX003 (ip), vehicle: saline): 158 % of control | T/C (dose: 4.0 mg/kg/injection, schedule: Q04DX003 (ip), vehicle: saline): 180 % of control | T/C (dose: 8.0 mg/kg/injection, schedule: Q04DX003 (ip), vehicle: saline): 202 % of control | T/C (dose: 16.0 mg/kg/injection, schedule: Q04DX003 (ip), vehicle: saline): 247 % of control | T/C (dose: 54.0 micrograms/kg/injection, schedule: Q01DX009 (ip), vehicle: saline): 151 % of control and 158 % of control | T/C (dose: 62.5 micrograms/kg/injection, schedule: Q01DX009 (ip), vehicle: saline): 160 % of control | T/C (dose: 90.0 micrograms/kg/injection, schedule: Q01DX009 (ip), vehicle: saline): 166 % of control and 182 % of control | T/C (dose: 125.0 micrograms/kg/injection, schedule: Q01DX009 (ip), vehicle: saline): 190 % of control | T/C (dose: 150.0 micrograms/kg/injection, schedule: Q01DX009 (ip), vehicle: saline): 188 % of control and 192 % of control | T/C (dose: 250.0 micrograms/kg/injection, schedule: Q01DX009 (ip), vehicle: saline): 109 % of control and 208 % of control and 236 % of control | T/C (dose: 417.0 micrograms/kg/injection, schedule: Q01DX009 (ip), vehicle: saline): 221 % of control and 90 % of control | T/C (dose: 500.0 micrograms/kg/injection, schedule: Q01DX009 (ip), vehicle: saline): 94 % of control

CC(C)(C)OC(=O)NCC(=O)NC(CSC(c1ccccc1)c1ccccc1)C(=O)NCC(=O)O (stereo not given)
T/C [4]: 105 % of control | T/C [5]: 99 % of control

CCOC(=O)c1cccc2c(=O)c3c([nH]c12)C(=O)c1c([nH]c2c(C(=O)OCC)cccc2c1=O)C3=O
T/C (dose: 50.0 mg/kg/injection, schedule: Q01DX009 (ip), vehicle: Klucel (hydroxypropylcellulose) (HPC)): 98 % of control | T/C (dose: 100.0 mg/kg/injection, schedule: Q01DX009 (ip), vehicle: Klucel (hydroxypropylcellulose) (HPC)): 90 % of control | T/C (dose: 200.0 mg/kg/injection, schedule: Q01DX009 (ip), vehicle: Klucel (hydroxypropylcellulose) (HPC)): 90 % of control

CCCCCCCCCCCCCCC/C([O-])=N/[N+](C)(C)CC(C)O (stereo not given)
T/C (dose: 50.0 mg/kg/injection, schedule: Q04DX003 (ip), vehicle: Klucel (hydroxypropylcellulose) (HPC)): 99 % of control | T/C (dose: 100.0 mg/kg/injection, schedule: Q04DX003 (ip), vehicle: Klucel (hydroxypropylcellulose) (HPC)): 99 % of control | T/C (dose: 200.0 mg/kg/injection, schedule: Q04DX003 (ip), vehicle: Klucel (hydroxypropylcellulose) (HPC)): 99 % of control

CN(C)C1CC(C)(O)Cc2cc3c(c(O)c21)C(=O)c1c(O)cc2c(c1C3=O)OC1OC2(C)C(O)C(N(C)C)C1O (stereo not given)
T/C (dose: 3.12 mg/kg/injection, schedule: Q01DX009 (ip), vehicle: other): 103 % of control | T/C (dose: 6.25 mg/kg/injection, schedule: Q01DX009 (ip), vehicle: other): 120 % of control | T/C [1]: 153 % of control

Cc1ccc(OCC2CO2)c(Br)c1 (stereo not given)
T/C (dose: 25.0 mg/kg/injection, schedule: Q01DX005 (ip), vehicle: saline with Tween-80): 101 % of control and 104 % of control | T/C (dose: 50.0 mg/kg/injection, schedule: Q01DX005 (ip), vehicle: saline with Tween-80): 100 % of control and 106 % of control (2×) | T/C (dose: 100.0 mg/kg/injection, schedule: Q01DX005 (ip), vehicle: saline with Tween-80): 101 % of control and 96 % of control | T/C (dose: 200.0 mg/kg/injection, schedule: Q01DX005 (ip), vehicle: saline with Tween-80): 101 % of control and 105 % of control and 111 % of control
